Laboratory results as given in PubChem BioAssay (NCI).
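All cell lines were grown in 96-well plates and treated with compound for 48 hours. TGI marks complete inhibition of growth.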

Key:
Assay in all cases: NCI tumour cell line growth inhibition, 48 h
[1] = tested on: NCI/ADR-RES ovarian
[2] = tested on: MCF7 breast
[3] = tested on: BT-549 breast
[4] = tested on: OVCAR-4 ovarian
[5] = tested on: HCC-2998 colon
[6] = tested on: UACC-62 melanoma
[7] = tested on: SNB-19 CNS
[8] = tested on: M14 melanoma
[9] = tested on: SN12C renal
[10] = tested on: SF-268 CNS
[11] = tested on: SF-539 CNS
[12] = tested on: NCI-H226 lung
[13] = tested on: HCT-116 colon
[14] = tested on: NCI-H522 lung
[15] = tested on: HOP-92 NSCLC
[16] = tested on: SR leukemia

| Structure (SMILES) | TGI [1] [µM] | TGI [2] [µM] | TGI [3] [µM] | TGI [4] [µM] | TGI [5] [µM] | TGI [6] [µM] | TGI [7] [µM] | TGI [8] [µM] | TGI [9] [µM] | TGI [10] [µM] | TGI [11] [µM] | TGI [12] [µM] | TGI [13] [µM] | TGI [14] [µM] | TGI [15] [µM] | TGI [16] [µM] |
| --- | --- | --- | --- | --- | --- | --- | --- | --- | --- | --- | --- | --- | --- | --- | --- | --- |
| O=C(O)c1ccc(N/C(=C(/C(Cl)=C(Cl)Cl)[N+](=O)[O-])n2nnc3ccccc32)cc1 | > 100 | > 100 | > 100 | > 100 | > 100 | > 100 | > 100 | > 100 | > 100 | > 100 | > 100 | > 100 | > 100 |  |  |  |
| O=c1c2ccccc2nc(-c2ccccc2)n1NC(=S)Nc1cccc(Cl)c1 |  |  |  | > 100 |  | > 100 |  | > 100 | > 100 | > 100 | > 100 | > 100 | > 100 | > 100 | 94.5 | > 100 |
| Cc1ccc(S[C@@H](C)[C@@](O)(C(N)=O)c2ccccc2)cc1 | 49.5 | > 100 | > 100 | 46.3 | > 100 | > 100 | > 100 | > 100 | > 100 | > 100 | 60.3 | > 100 | > 100 | 33 | 37.6 |  |
| CCn1c2ccccc2c2cc(Nc3cc(C)[nH]c(=O)n3)ccc21 | > 100 | > 100 |  | > 100 | > 100 | > 100 | > 100 | > 100 | > 100 | > 100 | > 100 |  | > 100 | > 100 | > 100 |  |
| CC1C2(C)OCC(C#N)(C(=N)O2)C1(C#N)C#N (stereo not given) | > 100 | 52.3 | > 100 |  |  | 76.1 | > 100 | 39.2 | 29.1 | 74.3 | 57.3 | > 100 | 42.1 |  | 48.9 |  |
| CCOC(=O)C(C(=O)COC(C)(C)C)[C@@H]1C=C[C@H](OC(C)=O)C1 (stereo not given in full) | > 100 | > 100 | > 100 | > 100 | > 100 | > 100 | > 100 | > 100 | > 100 | > 100 | > 100 | > 100 | > 100 |  |  |  |
| CC(C)c1ccc(/C=C2\CSCC3=C2N=C2SCC(=O)N2C3c2ccc(C(C)C)cc2)cc1 (stereo not given) | > 100 | > 100 |  | > 100 | > 100 | > 100 |  | > 100 | > 100 | > 100 | > 100 | > 100 | > 100 |  | > 100 | > 100 |
| CCOC(=O)CC(NC(=O)c1ccc(N=NN(C)C)cc1)C(=O)OCC (stereo not given) |  |  |  | > 100 | > 100 | > 100 | > 100 | > 100 | > 100 | > 100 | > 100 | > 100 | > 100 | > 100 |  | > 100 |
| CN(C)CN(C)c1nc(N(C)C)nc(N(C)CN(C)C)n1 |  |  |  | > 100 | > 100 | 40.9 | > 100 | > 100 | > 100 | > 100 | > 100 | > 100 | > 100 | > 100 | > 100 | 58.3 |
| O=C(Cc1ccccc1)NN1C(=O)/C(=C\c2ccccc2O)SC1=Nc1ccccc1 | > 100 | > 100 | > 100 | > 100 | > 100 | > 100 | > 100 | > 100 | > 100 | > 100 | > 100 | > 100 | > 100 |  | > 100 |  |
| C=CC[C@H](N=C(SC)SC)C(=O)N1C(=O)N(C)[C@@H](C)[C@H]1c1ccccc1 | > 100 | > 100 | > 100 | > 100 | 92.2 | > 100 | > 100 | > 100 | > 100 | > 100 | > 100 | > 100 | > 100 | 54.1 | 68.3 |  |
| CC(=O)c1sc2[n+](c1C)C(=O)/C(=C\c1ccccc1Cl)S2 | 61.6 | 29.8 |  | > 100 | 37.6 | 25.8 | 47.6 | 40 | 78.8 | 64.5 | 44.7 | 30.9 | 37.6 | 39 | > 100 | 52.5 |
| CCCCCCCCCCCCOP(=O)(O)OP(=O)(O)OCC1OC(n2cc(C)c(=O)[nH]c2=O)CC1O (stereo not given) | > 100 | > 100 | > 100 | > 100 | > 100 |  | > 100 | > 100 | > 100 | > 100 | > 100 | > 100 | > 100 | > 100 | > 100 |  |
| COC(=O)c1ccc(NCC2=C(Br)C(=O)C=CC2=O)cc1Cl | 75.4 | 30.9 | 26.1 | 62.3 | > 100 | 33.8 | > 100 | 32.1 | 30.1 | 35.1 | 35.7 | > 100 | 31.9 | 21.2 | 29.1 |  |
| CN(C)/C=C/C=C(/C=N/S(=O)(=O)C(F)(F)F)C1C=CN(S(=O)(=O)C(F)(F)F)C=C1 | 96.1 |  | 70.1 | 42.9 | 78.5 | 83.9 |  | > 100 | > 100 | > 100 |  | 67.3 | 87.2 | 52.4 | 90 | > 100 |
| Cc1ccc(S(=O)(=O)Nn2c(O)c(C#N)c(-c3ccc([N+](=O)[O-])cc3)c(C#N)c2=O)cc1 | > 100 | > 100 | > 100 | > 100 | > 100 | > 100 | > 100 | > 100 | > 100 | > 100 | > 100 | > 100 | > 100 | > 100 | > 100 |  |

| Structure (SMILES) | TGI [1] [µM] | TGI [2] [µM] | TGI [3] [µM] | TGI [4] [µM] | TGI [5] [µM] | TGI [6] [µM] | TGI [7] [µM] | TGI [8] [µM] | TGI [9] [µM] | TGI [10] [µM] | TGI [11] [µM] | TGI [12] [µM] | TGI [13] [µM] | TGI [14] [µM] | TGI [15] [µM] | TGI [16] [µM] |
| --- | --- | --- | --- | --- | --- | --- | --- | --- | --- | --- | --- | --- | --- | --- | --- | --- |
| CC(C)[Si](OCC1CC(C#N)OC(C)(C)O1)(C(C)C)C(C)C (stereo not given) |  |  |  | > 100 | 38.4 | > 100 | 50.8 | 48.4 | > 100 | 82.7 | 79 | 35 | 30.1 | 43.5 | 57.2 | 41.5 |
| Cc1cc(=O)oc2c(CNC(CC(C)C)C(=O)O)c(O)ccc12 (stereo not given) | > 100 | > 100 |  | > 100 | > 100 | > 100 | > 100 | > 100 | > 100 | > 100 | > 100 | > 100 | > 100 | > 100 | > 100 | > 100 |
| CC(C)C(NC(=O)C(Cc1ccccc1)NC(=O)[C@H]1CCC[C@H]1NC(=O)C(Cc1ccc(OC(C)(C)C)cc1)NC(=O)OC(C)(C)C)C(N)=O (stereo not given in full) | > 100 | 35.9 |  | 65.4 | 30.5 | 40.5 |  | 33.6 | 35.2 | 70 | 33.8 | 37.8 | 32.1 | 30.7 | 48.9 | > 100 |
| O=C1C=C(N2CCN(CCOCCO)CC2)C(=O)c2c(O)ccc(O)c21 | 10.4 | 2.98 | 25.5 | 8.33 | 6.95 | 4.1 | 33.7 | 3.1 | 14.8 | 37.1 | 25.6 | 35.5 | 7.44 | 5.75 | 20.7 |  |
| CC(=O)Nc1ccc(-c2nnc(SCC(=O)Nc3ccc(Cl)cc3)o2)cc1 |  |  |  | 55.9 | 37.5 | 20.2 | 35.7 | 34.1 | 27.5 | 20.1 | 30.2 | 37 | 20.2 | 5.98 |  |  |
| Cc1ccccc1NC(=O)Cc1csc(N=Nc2c(O)[nH]c3ccccc23)n1 | > 100 | > 100 |  | 62.7 |  | > 100 | > 100 | > 100 | > 100 | > 100 | 32.3 | > 100 | > 100 | 41.2 | > 100 |  |
| FC(F)(F)c1ccc2nc(Sc3ccc4ccccc4c3)cnc2c1 | > 100 | 95 | > 100 | > 100 | > 100 | > 100 | > 100 | > 100 | > 100 | > 100 | > 100 | > 100 | > 100 | > 100 | > 100 |  |
| COc1ccc2c([nH]c3c(O)c(-c4c(C)cc5c([nH]c6c(CC=C(C)C)c(OC)ccc65)c4O)c(C)cc32)c1CC=C(C)C |  |  |  | > 100 | > 100 | > 100 | > 100 | > 100 | > 100 | > 100 | > 100 |  | > 100 | > 100 | > 100 | > 100 |
| c1cc2c(cc1C1=NCCN1)c1cc(C3=NCCN3)ccc1n2CC1CCCCC1 | > 100 |  | 41.9 | > 100 |  |  | 46.3 | > 100 | 80.1 | 22.2 | 19.2 | 48.7 | 51.1 | 21.6 | 47.9 | 38.6 |
| C=C1CC2[C@H](C)C(=O)CCC2(C)C2=C1C1CCC(C(C)CCC(=C)C(C)C(=O)O)C1(C)CC2=O (stereo not given in full) | > 100 | > 100 | > 100 | > 100 | > 100 | > 100 | > 100 | > 100 | > 100 | > 100 | > 100 | > 100 | > 100 | > 100 | 85.2 |  |
| CN1CCC2(CC1)C(=NC1CCCCC1)NC(=O)N2c1ccccc1 | > 100 | > 100 |  |  | > 100 | > 100 | > 100 | > 100 | > 100 | > 100 |  | > 100 | > 100 |  | > 100 | > 100 |
| CCCCC[C@H]1CCCCCCCCCC(=O)OC2C(O[C@@H]3OC(C)[C@H](OC(=O)[C@@H](C)CC)C(O[C@@H]4OC(C)[C@H](O)C(O)[C@@H]4O)[C@@H]3OC(=O)[C@H](C)CC)[C@H](OC3C(O)[C@@H](O)C(C)O[C@H]3O1)OC(CO)[C@H]2O (stereo not given in full) | 36.9 | 34.7 |  | 36.3 | 31.8 | 30.9 | 32.1 | 32.3 | 31.3 | 33.4 |  |  | 29.7 | 34.2 | 37.1 | 34.7 |
| CC(C)(C)C1=C(Br)C(OC(=O)C(F)(F)F)(C(C)(C)C)OP1(=O)c1ccccc1 (stereo not given) | > 100 | > 100 |  | > 100 | > 100 | 95.4 | > 100 | > 100 | > 100 | > 100 | > 100 | > 100 | > 100 | > 100 | 92.5 |  |
| CC(C)=NOC(=O)Nc1cccc2c1OCO2 | > 100 | > 100 |  | > 100 | > 100 | > 100 | > 100 | > 100 | > 100 | > 100 | > 100 | > 100 | > 100 | > 100 | > 100 |  |
| N#Cc1nc(-c2cccc(-c3nc(C#N)c(N)o3)n2)oc1N | > 100 | > 100 |  | > 100 | > 100 | > 100 | > 100 | > 100 | > 100 | > 100 | > 100 | > 100 | > 100 | > 100 | > 100 | > 100 |
